Data as given in ChEMBL document CHEMBL3507680, “University of Dundee, Gates Library screen for HepG2 cell viability”.

Assay: Human HepG2 cell viability assay in 384 well format
Format: toxicity, cell-based
Set-up: dose 125 nL, time 70.5 hour; concentration not given beside the values
Conditions: HepG2 cells, read-out: Inhibition

| SMILES | cytotoxicity at 70.5 h |
| --- | --- |
| CC(=O)N1CCN([C@@H]2CCC[C@@H](N(C)C(=O)C3CC3)[C@H]2O)CC1 | -1.88% |
| CN(Cc1cccc(F)c1)C(=O)CS(=O)(=O)Cc1ccc(Cl)c(Cl)c1 | -11.2% |
| c1cncc(COc2ccccc2CNC2CCc3ncnn3C2)c1 (stereo unspecified) | -5.98% |
| Cc1nc(CN2CCC3(C2)CN(C(=O)c2conc2C)C3)cs1 | -3.94% |
| Cc1cc(NC(=O)N2CCOC(C(N)=O)C2)ccc1Br (stereo unspecified) | -12.3% |
| Cc1ccc(N(CCC#N)C(=O)CCc2cscn2)cc1C | -3.27% |
| Cc1csc2ncc(-c3ccnc(N4CCN(C)CC4)n3)c(=O)n12 | 24.1% |
| Cn1cnnc1S(=O)(=O)C1CCN(S(=O)(=O)C2CC2)CC1 | -1.29% |
| CCCc1cncnc1N1CCC(NCc2ccncc2)CC1 | -13.1% |
| O=C(Cc1cccs1)Nc1cnn(C2CCOCC2)c1 | -12.8% |
| O=C1CC[C@@H]2[C@@H](CCN2Cc2ccncc2)N1c1ccccc1 | 4.02% |
| CC(C)Oc1cc(N2CCC3(CC2)[C@H](O)C[C@@H]3O)nc(N)n1 | -1.26% |
| COc1ccccc1C1(CNc2ccnc(C(=O)N(C)C)c2)CC1 | 33.4% |
| Cc1noc(NC(=O)c2ccc(Br)o2)n1 | -9.68% |
| CC(=O)N1CCC2(CC1)c1ncc(-c3cccnc3)n1CCN2C | 0.401% |
| CC(Cc1ccccc1F)C(=O)Nc1ccc(OCCC(N)=O)cc1 (stereo unspecified) | -3.92% |
| c1ccc2oc(CN3CCOC(Cn4cccn4)C3)nc2c1 (stereo unspecified) | -0.847% |
| CS(=O)(=O)N1CCC(CSc2ccccc2)C1 (stereo unspecified) | -13.4% |
| COc1cc(CNCc2ccco2)ccc1OCCO | -5.33% |
| CCOC(=O)N1CCN(C(=O)CCn2ccc3c(OC)cccc32)CC1 | -9.78% |
| Cn1cc(C2CCCN2CCCc2nc(-c3cccs3)no2)cn1 (stereo unspecified) | -11.4% |
| COCCN1CCCC(c2nc3c([nH]2)CC(C)(C)CNC3=O)C1 (stereo unspecified) | -3% |
| CCc1nc(CN2CCCC(N(C)Cc3nc(C)c(C)o3)C2)no1 (stereo unspecified) | -74.1% |

| SMILES | cytotoxicity at 70.5 h |
| --- | --- |
| CCOCC1CC2(CCN(C(=O)C3CC=CC3)CC2)CO1 (stereo unspecified) | -8.99% |
| CCS(=O)(=O)NC(CCSC)C(=O)Nc1ccccc1C (stereo unspecified) | -92% |
| Fc1ccc(C2CCCN2Cc2nc(Cc3ccccc3F)no2)cc1 (stereo unspecified) | 0.991% |
| c1ccc(COC[C@H]2CC[C@H]3[C@H](CCN3Cc3ccco3)O2)nc1 | -6.26% |
| Cc1cc(CNCC2(O)CCCN(CCCc3ccccc3)C2=O)n[nH]1 (stereo unspecified) | -5.17% |
| Cc1cc(C(=O)N2CCCC3(CNC(=O)O3)C2)c2c(C)nn(C)c2n1 (stereo unspecified) | -5.33% |
| c1c[nH]c(CN2CCCC(Cc3ccc(NC4CCCC4)nn3)C2)n1 (stereo unspecified) | 7.73% |
| Oc1cccc(CN2C[C@H]3CC[C@@H]2CN(Cc2ccncc2)C3)c1 | -12.3% |
| O=C(Nc1ccc2c(c1)OC1(CCCC1)O2)c1ccc(=O)[nH]n1 | -6.98% |
| COC(=O)CC1c2cccnc2C(=O)N1Cc1ccccc1 (stereo unspecified) | -3.32% |
| O=C1CC(C(=O)NCCN2CCOC2=O)c2cc(F)ccc2N1 (stereo unspecified) | 2.37% |
| O=C1CCC2(CCNCC2)CN1CCCNc1cccnc1 | -0.123% |
| COc1cccc(CN2CCC3(CC(Nc4ccncn4)C3)C2)c1F (stereo unspecified) | 2.19% |
| Cc1cc(-c2cc(S(=O)(=O)N3C[C@H](C4CC4)[C@@H](N)C3)c(C)s2)[nH]n1 | -9.13% |
| CN1CC[C@@H]2OC[C@H](C(=O)N(C)Cc3ccccn3)C[C@@H]2C1 | 2.32% |
| Cc1ccc(S(=O)(=O)Cc2noc([C@@H]3C[C@@H](O)CN3)n2)cc1 | -3.28% |
| CC(=O)N1CCCC(Cc2cnc(-c3c(C)nn(C)c3C)cn2)C1 (stereo unspecified) | -7.67% |
| CCN(Cc1cccc(F)c1)c1ccc2nnnn2n1 | -1.32% |
| O=S(=O)(C1CC1)N1CCc2ncnc(-c3ccc(F)cc3)c2CC1 | 0.906% |
| Cc1nc(Cn2c3c(ccc2=O)CC(N)CC3)cs1 (stereo unspecified) | 4.04% |
| CC(C)c1nsc(N2CCCOCC2)n1 | 37.7% |
| CCN1C(=O)CCC12CCN(S(=O)(=O)c1ccccc1)CC2 | -4.14% |
| Cc1cc(Nc2ccc3c(c2)CC(=O)N3)nc(C2CC2)n1 | -9.05% |

| SMILES | cytotoxicity at 70.5 h |
| --- | --- |
| CS(=O)(=O)N1CCC(NC(=O)COc2ccc(Br)cc2Cl)CC1 | 30.2% |
| CN1C[C@@H](C(=O)NC(C)(C)C)[C@@]2(CCc3ccccc3C(=O)N2)C1 | 0.823% |
| Cn1ccnc1C(=O)N1CCCC(Cn2cc(CO)nn2)C1 (stereo unspecified) | -1.24% |
| COCCC(=O)NC(C)(C(N)=O)c1cccc(Cl)c1 (stereo unspecified) | -3.41% |
| Cn1cc(C2CCCN2C(=O)c2cnc(-c3ccccn3)s2)cn1 (stereo unspecified) | 3.12% |
| CSC1(CNC(=O)N(C)Cc2sccc2C)CCOCC1 | 29.3% |
| CCc1nnc(N2CCN(CCc3ccccc3)C(=O)C2)o1 | -2.76% |
| O=C(CN1CCCC1Cn1cncn1)Nc1ccc(Cl)cn1 (stereo unspecified) | -3.38% |
| Cc1cccc(=O)n1CCCNc1nc(N(C)C)nc2c1CCNC2 | 18.8% |
| O=C(NC[C@]12COC[C@H]1CN(Cc1ccncc1)C2)c1ccno1 | -7.21% |
| O=C(c1ccncc1)N1CC2(CCNCC2)c2cc(Cl)ccc21 | -6.69% |
| Cn1ncc2c1NC(=O)CC2c1ccc(O)cc1 (stereo unspecified) | 7.25% |
| CS(=O)(=O)c1ccc2c(c1)nc1n2[C@@H](CNCc2cccnc2)COC1 | -6.64% |
| CCOc1ccc(-c2ccnc(CC)n2)cc1C(=O)O | -7.1% |
| CO[C@H]1COCCN(C(=O)c2ccc(C#N)cc2)C1 | 9.9% |
| CN(Cc1cc(C2CC2)[nH]n1)C(=O)C(c1cccnc1)N1CCCC1 (stereo unspecified) | -3.32% |
| O=C(CC1CCCCC1)NC1CCCc2nc(N3CCOCC3)ncc21 (stereo unspecified) | 0.0844% |
| FC(F)(F)c1ccnc(N2CCCN(Cc3ccccn3)CC2)n1 | 11.3% |
| Nc1nccnc1C1CN(C(=O)c2cnc(C3CC3)nc2)CCO1 (stereo unspecified) | -4.03% |
| CCOCC1CN(Cc2cc(C)on2)Cc2cn(C)nc21 (stereo unspecified) | 4.78% |
| O=C(c1ccsc1)N1C[C@@H]2CCN(C(=O)c3cccc(F)c3)[C@@H]2C1 | -11.5% |
| O=C(Cn1cccn1)N1CCC(Cn2cc(-c3ccsc3)nn2)CC1 | -10.6% |
| CC(C)[C@@H]1CN(C(=O)NCc2ccco2)C[C@H]1N(C)C | -5.48% |

| SMILES | cytotoxicity at 70.5 h |
| --- | --- |
| CC(=O)N1CCOC(c2cncc(CCC(N)=O)n2)C1 (stereo unspecified) | 7.13% |
| CC(C)c1noc(CCCC(=O)NCC2CCS(=O)(=O)C2)n1 (stereo unspecified) | 22.3% |
| Cc1ccccc1C(C(=O)NCCN1CCC(CO)CC1)N(C)C (stereo unspecified) | -3% |
| CC(C)c1nc2c(n1C)CCN(Cc1nc(-c3ccoc3)no1)C2 | -4.46% |
| O=S(=O)(Nc1ncccc1F)c1cc(Cl)cc2c1OCC2 | 6.97% |
| CN1CCCC(c2cncc(-c3cccc(C(F)(F)F)c3)n2)C1 (stereo unspecified) | -8.63% |
| Cc1cccc2[nH]c(C3CCCN3Cc3ccc(CO)o3)nc12 (stereo unspecified) | -9.7% |
| COc1cccc(COCC(=O)N2CCCC(n3ccnc3C)C2)c1 (stereo unspecified) | -15.7% |
| CC(C)c1nnsc1CNC(=O)C1CCN(C(=O)C2CC2)CC1 | 2.6% |
| CCc1nc(C2CCCN2CC(=O)Nc2nncs2)no1 (stereo unspecified) | -2.48% |
| Cc1cccnc1CC(C)Nc1nc(N)nc2c1CCNC2 (stereo unspecified) | 2.93% |
| CS(=O)(=O)NCCNC(=O)NC1(c2ccc(F)cc2)CCCC1 | -9.82% |
| c1ccc(CCN2C[C@@H]3OCCN(c4ncccn4)[C@@H]3C2)cc1 | -9.92% |
| Cc1nn(C)c(C)c1C1COCCN1c1ncnc2c(C)cccc12 (stereo unspecified) | -6.31% |
| Cn1ccc(C(=O)NC2CCC23CCN(C(=O)c2ccncc2)CC3)c1 (stereo unspecified) | -6.03% |
| CCC(Cn1ccc2[nH]c(=O)c(C#N)cc2c1=O)OC (stereo unspecified) | -6.98% |
| CN(C)CCCNC(=O)c1nc(Cc2c(Cl)cccc2Cl)no1 | 15.3% |
| CN(C)CCSc1ccc(NC(=O)c2nccn3ccnc23)cc1 | -2.14% |
| Cc1noc(CNc2cccc(C(=O)N3CCCC(O)C3)c2)n1 (stereo unspecified) | -6.36% |
| C=C(C)COc1ccccc1C(=O)NCc1nc(C)cc(=O)[nH]1 | -11.2% |
| CSCc1noc(C2CCC(=O)N(CCc3ccccc3)C2)n1 (stereo unspecified) | -13.9% |
| CN1CCCC[C@@H]2[C@H]1[C@@H](c1ccccc1)CCN2C(=O)c1cnccn1 | 1.76% |
| O=C(c1cccnc1)N1C[C@@H]2CC[C@H](C1)N(Cc1cc(F)ccc1F)C2 | -5.88% |

| SMILES | cytotoxicity at 70.5 h |
| --- | --- |
| O=C(NCc1ccccn1)[C@@H]1COC[C@H]2CN(c3ncccn3)C[C@H]21 | -6.07% |
| CCCn1nnc(NCc2cc(Br)cc(Br)c2OC)n1 | -9.35% |
| CN(Cc1ccncc1)C1CCC[C@@H]2CN(c3ncccn3)C[C@H]12 (stereo partly specified) | -2.1% |
| O=C1CN(c2ccc(CNC(=O)NCCO)cc2)CCN1 | -5.73% |
| Cc1cnn(CC2CCCCN2Cc2cc(C)no2)c1 (stereo unspecified) | -8.3% |
| O=C1C[C@H]2[C@H](CCN2C(=O)c2ccno2)N1CC1CC1 | -4.81% |
| Cn1cc(Cl)c(CN2CCn3nc(C(=O)Nc4ccccc4)cc3C2)n1 | 32.8% |
| Cc1noc(C)c1CN1C[C@@H]2CC[C@H](C1)N(Cc1cc(F)cc(F)c1)C2 | -14.1% |
| O=C(CN1CCOC(Cn2cccn2)C1)NCCc1cccs1 (stereo unspecified) | -4.13% |
| c1cc(-c2nn3c(CN4CCOCC4)nnc3s2)ccn1 | -8.04% |
| CN1CC(c2ccccc2)C2(CCN(C(=O)c3ccc[nH]3)CC2)C1=O (stereo unspecified) | 2.63% |
| COC(=O)c1cc(C2CC2)nc2c(C#N)cnn12 | 25% |
| Cc1nc(N)cc(C2(C)CCCNC2)n1 (stereo unspecified) | -5.33% |
| Cn1cccc1-c1cc(C(=O)N2CCCCC2c2ccc(F)cc2)[nH]n1 (stereo unspecified) | -3.93% |
| COC(=O)[C@@H]1CCCN1C(=O)c1cn(C/C=C/c2ccccc2)nn1 | 24.7% |
| N#Cc1cccc(C(=O)NC2CCc3c(ccc(=O)n3CC3CC3)C2)c1 (stereo unspecified) | -2.82% |
| CO[C@@H]1CCN(Cc2nccn2C)[C@H]1Cc1cccnc1 | 12.4% |
| OC(CNC1CCSCC1)c1cccc(OCc2ccccc2)c1 (stereo unspecified) | 23.4% |
| Cc1noc(CN(C)C(=O)c2n[nH]c(N)c2-c2ccccc2)n1 | 2.44% |
